The values below come from patent US8232401B2 (Japan Tobacco Inc., priority 2002, dated 2012).

This assay deals with T1, HIV integrase (Human immunodeficiency virus type 1 group M subtype B, UniProt P12497, F1332H).
T1 construct: HIV integrase full length gene; made in house; host or cells: Escherichia coli BL21(DE3)
The assay is described as follows: Determination of enzyme (HIV integrase) inhibitory activity (strand transfer, microtiter plate, absorbance at 450 nm). Type of assay: biochemical, HIV (Human Immunodeficiency Virus (type 1)). As to conditions: recombinant HIV integrase (F185H) expressed in E. coli; donor DNA on streptavidin plate, digoxigenin target DNA; 37° C. The protocol: The following explains evaluation methods of the HIV integrase inhibitory activity of the compound of the present invention.
(i) Construction of Recombinant Integrase Gene Expression System
(ii) Production and Purification of Integrase Protein
Escherichia coli recombinant BL21(DE3) transformed with plasmid pET21a-IN-F185H obtained in (i) was shake cultured at 30° C. in a liquid medium containing ampicillin. When the culture reached the logarithmic growth phase, isopropyl-β-D-thiogalactopyranoside was added to promote expression of integrase gene. The culture was continued for 3 hrs to promote accumulation of the integrase protein. The recombinant E. coli was collected in pellets by centrifugal separation and preserved at −80° C.
The E. coli was suspended in Lysis buffer (20 mM HEPES (pH 7.5), 5 mM DTT, 10 mM CHAPS, 10% glycerol) containing 1M sodium chloride and subjected to repeat pressurization and depressurization for rupture, and centrifugal separation at 4° C., 40,000×g, 60 min to recover a water-soluble fraction (supernatant). This was diluted 10-fold with Lysis buffer free of sodium chloride, mixed with SP-Sepharose (Pharmacia Corporation) and stirred at 4° C. for 60 min to allow adsorption of integrase protein to the resin. The resin was washed with Lysis buffer containing 100 mM sodium chloride and the integrase protein was eluted with Lysis buffer containing 1M sodium chloride.
The eluted integrase protein solution was applied to a Superdex 75 (Pharmacia Corporation) column for gel filtration. The protein was eluted with Lysis buffer containing 1M sodium chloride.
The obtained fractions of the integrate protein were collected and preserved at −80° C.
(iii) Preparation of DNA Solution
The following DNA synthesized by Greiner was dissolved in TE buffer (10 mM Tris-hydrochloric acid (pH 8.0), 1 mM EDTA) and mixed with donor DNA, target DNA, each complementary strand (+ and − strands) to 1 μM. The mixture was heated at 95° C. for 5 min, 80° C. for 10 min, 70° C. for 10 min, 60° C. for 10 min, 50° C. for 10 min and 40° C. for 10 min and preserved at 25° C. to give a double stranded DNA, which was used for the test. Donor DNA (− strand having biotin attached to the 5′ terminal)
(iv) Determination of Enzyme (HIV Integrase) Inhibitory activity
The donor DNA was diluted with TE buffer to 10 nM, of which 50 μl was added to each well of streptavidin-coated microtiter plate (Roche) and allowed to adsorb at 37° C. for 60 min. The DNA was washed with phosphate buffer (Dulbecco PBS, Sanko Junyaku Co., Ltd.) containing 0.1% Tween 20 and phosphate buffer. Then, a reaction mixture (70 μl) having the following composition, a test substance (10 μl) diluted with the reaction mixture and […] integrase protein (10 μl) were added to each well and reacted at 37° C. for 60 min.
Then, 50 nM target DNA (1.0 μl) was added, reacted at 37° C. for 10 min and washed with phosphate buffer containing 0.1% Tween 20 to stop the reaction.
Then, 100 mU/ml peroxidase labeled anti-digoxigenin antibody solution (Roche, 100 μl) was added, and the mixture was reacted at 37° C. for 60 min, followed by washing with phosphate buffer containing 0.1% Tween 20.
A peroxidase color solution (Bio Rad, 100 μl) was added and allowed to react at room temperature for 4 min. The color reaction was stopped by adding 1N sulfuric acid (100 μl). The absorbance at 450 nm was measured.
The HIV integrase inhibitory activity (IC50) of the compound of the present invention was calculated from the inhibition rate according to the following formula. […] Evaluation of Antiviral Activity
As to `COc1c(Cl)cccc1Cc1ccc2c(c1)c(=O)c(C(=O)O)cn2CCO` [Example 3-3, 6-(3-Chloro-2-methoxybenzyl)-1-(2-hydroxyethyl)-4-oxo-1,4-dihydroquinoline-3-carboxylic acid], the IC50 (as a rule, the midpoint of a concentration-inhibition curve) was 190 nM. Turning to `CN(C)n1cc(C(=O)O)c(=O)c2cc(Cc3cccc(Cl)c3Cl)ccc21` [Example 2-6, 6-(2,3-Dichlorobenzyl)-1-dimethylamino-4-oxo-1,4-dihydroquinoline-3-carboxylic acid], the IC50 is 92 nM. As for `O=C(O)c1cc2c(cc1Cc1cccc(Cl)c1Cl)c(=O)c(C(=O)O)cn2CCO` [Example 3-36, 7-Carboxy-6-(2,3-dichlorobenzyl)-1-(2-hydroxyethyl)-4-oxo-1,4-dihydroquinoline-3-carboxylic acid], the figure is 51 nM.

With `Nc1cc(Cc2cccc(Cl)c2F)cc2c(=O)c(C(=O)O)cn(CCO)c12` [Example 3-35, 8-Amino-6-(3-chloro-2-fluorobenzyl)-1-(2-hydroxyethyl)-4-oxo-1,4-dihydroquinoline-3-carboxylic acid], the IC50 was 11 nM. As to `O=C(O)c1cn(CCc2ccccc2)c2ccc(Cc3cccc(Cl)c3Cl)cc2c1=O` [Example 1-16, 6-(2,3-Dichlorobenzyl)-4-oxo-1-phenethyl-1,4-dihydroquinoline-3-carboxylic acid], the IC50 amounted to 32 nM. Regarding `O=C(O)c1cn(CC(F)(F)F)c2ccc(Cc3cccc(Cl)c3Cl)cc2c1=O` [Example 1-27, 6-(2,3-Dichlorobenzyl)-1-(2,2,2-trifluoroethyl)-4-oxo-1,4-dihydroquinoline-3-carboxylic acid], the IC50 amounted to 76 nM. The value for `O=C(O)c1cn(CCO)c2cc(OCCO)c(Cc3cccc(Cl)c3F)cc2c1=O` [Example 3-76, 6-(3-Chloro-2-fluorobenzyl)-1-(2-hydroxyethyl)-7-(2-hydroxyethyloxy)-4-oxo-1,4-dihydroquinoline-3-carboxylic acid] was 8.5 nM; that for `CNc1cc2c(cc1Cc1cccc(Cl)c1F)c(=O)c(C(=O)O)cn2CCO` [Example 3-65, 6-(3-Chloro-2-fluorobenzyl)-7-methylamino-1-(2-hydroxyethyl)-4-oxo-1,4-dihydroquinoline-3-carboxylic acid] was 15 nM; that for `Nn1cc(C(=O)O)c(=O)c2cc(Cc3cccc(Cl)c3Cl)ccc21` [Example 2-1, 1-Amino-6-(2,3-dichlorobenzyl)-4-oxo-1,4-dihydroquinoline-3-carboxylic acid] was 170 nM. The value for `CC(C)Oc1cc(Cc2cccc(Cl)c2F)cc2c(=O)c(C(=O)O)cn(CCO)c12` [Example 3-59, 6-(3-Chloro-2-fluorobenzyl)-1-(2-hydroxyethyl)-8-isopropyloxy-4-oxo-1,4-dihydroquinoline-3-carboxylic acid] was 8 nM; that for `CC(C)Oc1cc2c(cc1Cc1cccc(Cl)c1F)c(=O)c(C(=O)O)cn2[C@@H](C)CO` [Example 3-74] was 4.9 nM; that for `CC(C)Oc1cc(Cc2cccc(Cl)c2F)cc2c(=O)c(C(=O)O)cn([C@H](CO)C(C)C)c12` [Example 4-24, (S)-6-(3-Chloro-2-fluorobenzyl)-1-(1-hydroxymethyl-2-methylpropyl)-8-isopropyloxy-4-oxo-1,4-dihydroquinoline-3-carboxylic acid] was 2.5 nM. The value for `CCC[C@@H](CO)n1cc(C(=O)O)c(=O)c2cc(Cc3cccc(Cl)c3F)c(OC(C)C)cc21` [Example 4-35] was 4.3 nM; that for `CCCn1cc(C(=O)O)c(=O)c2cc(Cc3cccc(Cl)c3Cl)ccc21` [Example 1-38, 6-(2,3-Dichlorobenzyl)-4-oxo-1-propyl-1,4-dihydroquinoline-3-carboxylic acid] was 170 nM.

Regarding `Cc1ncsc1CCn1cc(C(=O)O)c(=O)c2cc(Cc3cccc(Cl)c3Cl)ccc21` [Example 1-29, 6-(2,3-Dichlorobenzyl)-1-[2-(4-methylthiazol-5-yl)ethyl]-4-oxo-1,4-dihydroquinoline-3-carboxylic acid], the IC50 was 240 nM.

With `CCN(CC)c1cc(Cc2cccc(Cl)c2F)cc2c(=O)c(C(=O)O)cn(CCO)c12` [Example 3-64, 6-(3-Chloro-2-fluorobenzyl)-8-diethylamino-1-(2-hydroxyethyl)-4-oxo-1,4-dihydroquinoline-3-carboxylic acid], the IC50 worked out at 18 nM. `CN(C)c1cc(Cc2cccc(Cl)c2F)cc2c(=O)c(C(=O)O)cn(CCO)c12` [Example 3-38, 6-(3-Chloro-2-fluorobenzyl)-8-dimethylamino-(2-hydroxyethyl)-4-oxo-1,4-dihydroquinoline-3-carboxylic acid]: the IC50 came out at 15 nM.

For the compound `O=C(O)c1cn(CCO)c2ccc(Cc3cccc(Cl)c3)cc2c1=O` [Example 1-31], the IC50 turned out to be 170 nM. The value for `O=C(O)Cn1cc(C(=O)O)c(=O)c2cc(Cc3cccc(Cl)c3Cl)ccc21` [Example 1-28, 1-Carboxymethyl-6-(2,3-dichlorobenzyl)-4-oxo-1,4-dihydroquinoline-3-carboxylic acid] was 59 nM; that for `CCn1cc(C(=O)O)c(=O)c2cc(Cc3cccc(Cl)c3Cl)ccc21` [Example 1-37, 6-(2,3-Dichlorobenzyl)-1-ethyl-4-oxo-1,4-dihydroquinoline-3-carboxylic acid] was 110 nM; that for `CCC[C@@H](CO)n1cc(C(=O)O)c(=O)c2cc(Cc3cccc(Cl)c3F)cc(OC)c21` [Example 4-49, (S)-6-(3-Chloro-2-fluorobenzyl)-1-[1-(hydroxymethyl)butyl]-8-methoxy-4-oxo-1,4-dihydroquinoline-3-carboxylic acid] was 5.7 nM.

Turning to `O=C(O)c1cn(CCO)c2c(NCCO)cc(Cc3cccc(Cl)c3F)cc2c1=O` [Example 3-78, 6-(3-Chloro-2-fluorobenzyl)-1-(2-hydroxyethyl)-8-(2-hydroxyethylamino)-4-oxo-1,4-dihydroquinoline-3-carboxylic acid], the IC50 worked out at 16 nM.

For `O=C(O)c1cn(CCO)c2c(C(F)(F)F)cc(Cc3cccc(Cl)c3F)cc2c1=O` [Example 3-25, 6-(3-Chloro-2-fluorobenzyl)-1-(2-hydroxyethyl)-4-oxo-8-trifluoromethyl-1,4-dihydroquinoline-3-carboxylic acid], the IC50 worked out at 69 nM.

As for `CCCOc1cc(Cc2cccc(Cl)c2F)cc2c(=O)c(C(=O)O)cn(CCO)c12` [Example 3-58, 6-(3-Chloro-2-fluorobenzyl)-1-(2-hydroxyethyl)-4-oxo-8-propyloxy-1,4-dihydroquinoline-3-carboxylic acid], the IC50 is 8 nM. As for `O=C(O)c1cn(CCc2ccccn2)c2ccc(Cc3cccc(Cl)c3Cl)cc2c1=O` [Example 1-45, 6-(2,3-Dichlorobenzyl)-4-oxo-1-(2-pyridin-2-ylethyl)-1,4-dihydroquinoline-3-carboxylic acid], the figure is 210 nM. On to `O=C(O)c1cn(CCO)c2cc(O)c(Cc3cccc(Cl)c3Cl)cc2c1=O` [Example 3-6, 6-(2,3-Dichlorobenzyl)-7-hydroxy-1-(2-hydroxyethyl)-4-oxo-1,4-dihydroquinoline-3-carboxylic acid], for which the IC50 was found to be 11 nM. As for `CCCOc1cc2c(cc1Cc1cccc(Cl)c1F)c(=O)c(C(=O)O)cn2CCO` [Example 3-49, 6-(3-Chloro-2-fluorobenzyl)-1-(2-hydroxyethyl)-4-oxo-7-propyloxy-1,4-dihydroquinoline-3-carboxylic acid], the figure is 7.9 nM; as for `CN(C)c1ccccc1Cc1ccc2c(c1)c(=O)c(C(=O)O)cn2CCO` [Example 3-8, 6-(2-Dimethylaminobenzyl)-1-(2-hydroxyethyl)-4-oxo-1,4-dihydroquinoline-3-carboxylic acid], 340 nM.
